Experimental findings from ChEMBL document CHEMBL3817788, “Natural cholinesterase inhibitors from Myristica cinnamomea King” (Bioorg Med Chem Lett, 2016) are described below.

One may read the inhibition as how much of the control response was suppressed. The low end stands for a response near the control, the high end for a response far below the control. One may read the IC50 as the concentration that inhibits the measured activity by half. A lower IC50 goes with greater potency. A word on the Ki: it is a measure of affinity in units of concentration, obtained from inhibition or displacement.

The subject of the first assay is Acetylcholinesterase. As to the kind of experiment: Inhibition of AChE (unknown origin) at 100 ug/ml using acetylthiocholine iodide as substrate incubated for 30 mins by Ellman's microplate assay. The settings on record: Homo sapiens. Background: In Ellman's method for cholinesterases, released thiocholine reacts with DTNB.
`O=C(CCCCCCCCc1ccc(O)c(O)c1)c1c(O)cccc1O` [MALABARICONE C] returned an inhibition of 97.1%.

The compound `O=C(CCCCCCCCc1ccc(O)cc1)c1c(O)cc(O)cc1O` had an inhibition of 99.4%.

The compound `O=C(CCCCCCCCc1ccc(O)c(O)c1)c1c(O)ccc(C(CCCCCCCCc2ccc(O)c(O)c2)c2c(O)cccc2O)c1O` (centres undefined) had an inhibition of 75.4%.

As to `O=C(O)CCCCCCCCc1ccc(O)cc1`, the inhibition is 45.1%.

As for `O=C(CCCCCCCCc1ccccc1)c1c(O)cccc1O` [MALABARICONE A], the inhibition amounted to 97.4%.

With `O=C(CCCCCCCCc1ccc(O)c(O)c1)c1c(O)ccc(C(CCCCCCCCc2ccc(O)cc2)c2c(O)cccc2O)c1O` (centres undefined), the inhibition was 91.5%.

As for `O=C(CCCCCCCCc1ccc(O)cc1)c1c(O)cccc1O` [MALABARICONE B], the inhibition is 95.9%.

The target of the next assay is Cholinesterase (Equus caballus) (UniProt P81908). As to the kind of experiment: Inhibition of equine serum BChE at 100 ug/ml using S-butyrylthiocholine chloride as substrate incubated for 30 mins by Ellman's microplate assay.
Chain of Cholinesterase (Equus caballus) (P81908 whole entry): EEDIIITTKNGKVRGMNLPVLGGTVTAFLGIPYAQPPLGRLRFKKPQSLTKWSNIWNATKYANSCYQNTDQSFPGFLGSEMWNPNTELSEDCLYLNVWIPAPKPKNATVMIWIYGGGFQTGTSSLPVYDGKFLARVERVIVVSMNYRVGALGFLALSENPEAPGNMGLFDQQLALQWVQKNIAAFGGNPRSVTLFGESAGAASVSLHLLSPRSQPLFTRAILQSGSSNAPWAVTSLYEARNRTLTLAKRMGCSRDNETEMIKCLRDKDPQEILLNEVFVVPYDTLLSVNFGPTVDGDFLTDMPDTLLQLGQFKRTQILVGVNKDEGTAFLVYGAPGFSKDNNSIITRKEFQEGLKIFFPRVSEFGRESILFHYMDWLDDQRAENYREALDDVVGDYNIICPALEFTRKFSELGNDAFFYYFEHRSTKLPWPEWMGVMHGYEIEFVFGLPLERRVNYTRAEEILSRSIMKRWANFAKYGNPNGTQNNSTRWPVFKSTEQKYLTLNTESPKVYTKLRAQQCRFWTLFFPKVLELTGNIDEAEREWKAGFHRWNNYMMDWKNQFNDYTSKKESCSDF
Conditions: not given
Take `O=C(CCCCCCCCc1ccc(O)c(O)c1)c1c(O)cccc1O` [MALABARICONE C]: the inhibition came to 94.1%.

On to `O=C(CCCCCCCCc1ccc(O)cc1)c1c(O)cc(O)cc1O`, for which the inhibition turned out to be 86.8%.

The compound `O=C(CCCCCCCCc1ccc(O)c(O)c1)c1c(O)ccc(C(CCCCCCCCc2ccc(O)c(O)c2)c2c(O)cccc2O)c1O` (centres undefined) came in with an inhibition of 81.1%.

In turn, `O=C(O)CCCCCCCCc1ccc(O)cc1` returned an inhibition of 49%.

`O=C(CCCCCCCCc1ccccc1)c1c(O)cccc1O` [MALABARICONE A] gave an inhibition of 69.5%.

For `O=C(CCCCCCCCc1ccc(O)c(O)c1)c1c(O)ccc(C(CCCCCCCCc2ccc(O)cc2)c2c(O)cccc2O)c1O` (centres undefined), the inhibition is 86.7%.

The compound `O=C(CCCCCCCCc1ccc(O)cc1)c1c(O)cccc1O` [MALABARICONE B] had an inhibition of 87.3%.

Target in a further assay: not listed separately
As to the kind of experiment: Inhibition of Saccharomyces cerevisiae alpha-glucosidase using p-nitrophenyl-alpha-D-glucopyranoside as substrate preincubated for 10 mins followed by substrate addition measured after 10 mins.
Conditions: not given
The compound `O=C1CC(CCCCCCc2ccc(O)cc2)Oc2cccc(O)c21` (centres undefined) had an IC50 of 359 µM.

For the compound `O=C(CCCCCCCCc1cc(O)c(O)cc1-c1ccc(O)c(C(=O)CCCCCCCCc2ccccc2)c1O)c1c(O)cccc1O`, the IC50 turned out to be 5.05 µM.

For the next assay, the target named is T1, Acetylcholinesterase (Homo sapiens, UniProt P22303). Kind of assay: Inhibition of AChE (unknown origin) using acetylthiocholine iodide as substrate incubated for 30 mins by Ellman's microplate assay.
T1 sequence (P22303 whole entry): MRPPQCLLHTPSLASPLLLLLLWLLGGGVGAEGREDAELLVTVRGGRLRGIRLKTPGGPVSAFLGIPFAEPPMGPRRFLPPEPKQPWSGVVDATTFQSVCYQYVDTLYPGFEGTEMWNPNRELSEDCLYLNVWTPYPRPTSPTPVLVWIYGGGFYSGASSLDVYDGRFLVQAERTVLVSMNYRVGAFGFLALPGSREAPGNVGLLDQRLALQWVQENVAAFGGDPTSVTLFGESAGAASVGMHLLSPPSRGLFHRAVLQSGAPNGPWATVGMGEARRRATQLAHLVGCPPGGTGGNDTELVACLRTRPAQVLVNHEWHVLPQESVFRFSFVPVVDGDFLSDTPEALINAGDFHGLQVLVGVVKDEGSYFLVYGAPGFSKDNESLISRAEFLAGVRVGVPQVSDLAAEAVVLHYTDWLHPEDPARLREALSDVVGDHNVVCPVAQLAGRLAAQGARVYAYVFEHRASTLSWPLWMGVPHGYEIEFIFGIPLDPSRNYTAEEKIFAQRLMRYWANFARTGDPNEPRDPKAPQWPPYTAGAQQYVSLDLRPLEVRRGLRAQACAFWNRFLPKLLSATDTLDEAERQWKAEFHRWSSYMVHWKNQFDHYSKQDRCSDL
Conditions: not given
Take `O=C(CCCCCCCCc1ccc(O)c(O)c1)c1c(O)cccc1O` [MALABARICONE C]: the IC50 came out at 1.94 µM.

Compound `O=C(CCCCCCCCc1ccc(O)cc1)c1c(O)cc(O)cc1O` returned an IC50 of 6.44 µM.

Compound `O=C(CCCCCCCCc1ccc(O)c(O)c1)c1c(O)ccc(C(CCCCCCCCc2ccc(O)c(O)c2)c2c(O)cccc2O)c1O` (centres undefined) registered an IC50 of 12.7 µM.

In turn, `O=C(CCCCCCCCc1ccccc1)c1c(O)cccc1O` [MALABARICONE A] had an IC50 of 1.31 µM.

The compound `O=C(CCCCCCCCc1ccc(O)c(O)c1)c1c(O)ccc(C(CCCCCCCCc2ccc(O)cc2)c2c(O)cccc2O)c1O` (centres undefined) displayed an IC50 of 30.7 µM.

Take `O=C(CCCCCCCCc1ccc(O)cc1)c1c(O)cccc1O` [MALABARICONE B]: the IC50 is 1.84 µM. Compared with the last compound, the IC50 is about 17-fold lower.

For another assay, the target named is T2, Cholinesterase (Equus caballus, UniProt P81908). Kind of assay: Inhibition of equine serum BChE using S-butyrylthiocholine chloride as substrate incubated for 30 mins by Ellman's microplate assay.
T2 sequence (P81908 whole entry): as the sequence (P81908 whole entry) above
Conditions: not given
The compound `O=C(CCCCCCCCc1ccc(O)c(O)c1)c1c(O)cccc1O` [MALABARICONE C] came in with an IC50 of 2.8 µM.

On to `O=C(CCCCCCCCc1ccc(O)cc1)c1c(O)cc(O)cc1O`, for which the IC50 is 6.65 µM. This IC50 is about 2.4-fold higher than that of the compound before.

Compound `O=C(CCCCCCCCc1ccc(O)c(O)c1)c1c(O)ccc(C(CCCCCCCCc2ccc(O)c(O)c2)c2c(O)cccc2O)c1O` (centres undefined) yielded an IC50 of 10.5 µM.

In the case of `O=C(CCCCCCCCc1ccccc1)c1c(O)cccc1O` [MALABARICONE A], the IC50 is 39.2 µM.

As to `O=C(CCCCCCCCc1ccc(O)c(O)c1)c1c(O)ccc(C(CCCCCCCCc2ccc(O)cc2)c2c(O)cccc2O)c1O` (centres undefined), the midpoint of inhibition, the IC50, lay at 12.5 µM.

With `O=C(CCCCCCCCc1ccc(O)cc1)c1c(O)cccc1O` [MALABARICONE B], the midpoint of inhibition, the IC50, lay at 1.76 µM. Against the preceding compound, the IC50 is about 7.1-fold lower.

Test system in another assay: not listed separately
As to the kind of experiment: Selectivity index, ratio of IC50 for equine serum BChE to IC50 for AChE (unknown origin).
Conditions: not given
For `O=C(CCCCCCCCc1ccc(O)c(O)c1)c1c(O)cccc1O` [MALABARICONE C], the Ratio IC50 came out at 1.44.

As for `O=C(CCCCCCCCc1ccc(O)cc1)c1c(O)cc(O)cc1O`, the Ratio IC50 was 1.03.

As for `O=C(CCCCCCCCc1ccc(O)c(O)c1)c1c(O)ccc(C(CCCCCCCCc2ccc(O)c(O)c2)c2c(O)cccc2O)c1O` (centres undefined), the Ratio IC50 was determined as 0.83.

As to `O=C(CCCCCCCCc1ccccc1)c1c(O)cccc1O` [MALABARICONE A], the Ratio IC50 is 33.

`O=C(CCCCCCCCc1ccc(O)c(O)c1)c1c(O)ccc(C(CCCCCCCCc2ccc(O)cc2)c2c(O)cccc2O)c1O` (centres undefined): the Ratio IC50 amounted to 0.41.

For the compound `O=C(CCCCCCCCc1ccc(O)cc1)c1c(O)cccc1O` [MALABARICONE B], the Ratio IC50 stood at 0.96.

Test system in the next assay: not listed separately
Kind of assay: Selectivity index, ratio of IC50 for AChE (unknown origin) to IC50 for equine serum BChE.
Conditions: not given
Turning to `O=C(CCCCCCCCc1ccc(O)c(O)c1)c1c(O)cccc1O` [MALABARICONE C], the Ratio IC50 stood at 0.69.

Take `O=C(CCCCCCCCc1ccc(O)cc1)c1c(O)cc(O)cc1O`: the Ratio IC50 was determined as 0.97.

Turning to `O=C(CCCCCCCCc1ccc(O)c(O)c1)c1c(O)ccc(C(CCCCCCCCc2ccc(O)c(O)c2)c2c(O)cccc2O)c1O` (centres undefined), the Ratio IC50 is 1.2.

On to `O=C(CCCCCCCCc1ccccc1)c1c(O)cccc1O` [MALABARICONE A], for which the Ratio IC50 came to 0.04.

`O=C(CCCCCCCCc1ccc(O)c(O)c1)c1c(O)ccc(C(CCCCCCCCc2ccc(O)cc2)c2c(O)cccc2O)c1O` (centres undefined): the Ratio IC50 was determined as 2.45.

Take `O=C(CCCCCCCCc1ccc(O)cc1)c1c(O)cccc1O` [MALABARICONE B]: the Ratio IC50 was found to be 1.05.

Another assay deals with T1, Acetylcholinesterase. As to the kind of experiment: Mixed inhibition of AChE (unknown origin) using acetylthiocholine iodide as substrate incubated for 30 mins by Lineweaver-Burk plot analysis.
Conditions: not given
In turn, `O=C(CCCCCCCCc1ccc(O)c(O)c1)c1c(O)cccc1O` [MALABARICONE C] showed a Ki of 5.86 µM.

In turn, `O=C(CCCCCCCCc1ccc(O)cc1)c1c(O)cccc1O` [MALABARICONE B] came in with a Ki of 4.33 µM.

The next assay addresses T2, Cholinesterase. Kind of assay: Mixed inhibition of equine serum BChE using S-butyrylthiocholine chloride as substrate incubated for 30 mins by Lineweaver-Burk plot analysis.
Conditions: not given
The compound `O=C(CCCCCCCCc1ccc(O)c(O)c1)c1c(O)cccc1O` [MALABARICONE C] had a Ki of 11.5 µM.

Compound `O=C(CCCCCCCCc1ccc(O)cc1)c1c(O)cccc1O` [MALABARICONE B] came in with a Ki of 0.56 µM.
